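48-hour exposure; five concentrations; linearly interpolated endpoints. GI50 marks 50% less growth.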 Active and inactive are the calls of the source. Rule as the data show it: active = GI50 up to about 1.1 µM and inactive = higher.
Experiments:
Assay in all cases: NCI-60 cell line screen, 48 h
U-251 = tested on: U-251
IGROV-1 = tested on: IGROV-1
HL-60 = tested on: HL-60
UACC-257 = tested on: UACC-257
OVCAR-5 = tested on: OVCAR-5
SR = tested on: SR
786-0 = tested on: 786-0
UACC-62 = tested on: UACC-62
SNB-75 = tested on: SNB-75
TK-10 = tested on: TK-10
HOP-92 = tested on: HOP-92
ACHN = tested on: ACHN
DMS-273 = tested on: DMS-273
NCI-H460 = tested on: NCI-H460
EKVX = tested on: EKVX
OVCAR-4 = tested on: OVCAR-4
NCI-H522 = tested on: NCI-H522

Measured: GI50

CCOC(=O)N1C2C=C(C)C(C3C(C)C(=O)N31)N(C(=O)c1ccccc1)O2 (stereo unspecified)
inactive: U-251 > 100 µM | IGROV-1 > 100 µM | HL-60 > 100 µM | UACC-257 > 100 µM | OVCAR-5 > 100 µM | SR > 100 µM | 786-0 > 100 µM | UACC-62 > 100 µM | SNB-75 > 100 µM | TK-10 > 100 µM | HOP-92 > 100 µM | ACHN > 100 µM | DMS-273 > 100 µM | NCI-H460 > 100 µM | EKVX > 100 µM | OVCAR-4 > 100 µM

CCOC(=O)Cn1c2ccccc2c(=O)c2cc(C)c(C)c(C#N)c21
inactive: U-251 > 100 µM | IGROV-1 > 100 µM | HL-60 > 100 µM | UACC-257 > 100 µM | OVCAR-5 > 100 µM | SR > 100 µM | 786-0 > 100 µM | UACC-62 > 100 µM | SNB-75 23.2 µM | TK-10 > 100 µM | HOP-92 21.8 µM | ACHN > 100 µM | DMS-273 > 100 µM | NCI-H460 > 100 µM | EKVX > 100 µM

C[Si](C)(C)/C(Br)=C\CCN1C(=O)CCC1O (stereo unspecified)
inactive: U-251 > 100 µM | IGROV-1 > 100 µM | UACC-257 > 100 µM | OVCAR-5 > 100 µM | 786-0 > 100 µM | UACC-62 > 100 µM | SNB-75 34.2 µM | TK-10 > 100 µM | HOP-92 91.4 µM | ACHN > 100 µM | DMS-273 > 100 µM | NCI-H522 71.9 µM | NCI-H460 > 100 µM | EKVX > 100 µM | OVCAR-4 > 100 µM

O=C(Nc1ccccc1Cl)c1ccc([N+](=O)[O-])cc1
inactive: U-251 > 100 µM | IGROV-1 > 100 µM | UACC-257 > 100 µM | 786-0 45.7 µM | UACC-62 > 100 µM | SNB-75 22.4 µM | TK-10 > 100 µM | DMS-273 > 100 µM | NCI-H522 > 100 µM | NCI-H460 > 100 µM | EKVX 76.4 µM

CCc1cc2c(O)c(c1)Cc1cc(CC)cc(c1O)Cc1cc(CC)cc(c1O)Cc1cc(CC)cc(c1O)Cc1cc(CC)cc(c1O)Cc1cc(CC)cc(c1O)Cc1cc(CC)cc(c1O)C2
inactive: U-251 62.8 µM | IGROV-1 > 100 µM | HL-60 > 100 µM | UACC-257 > 100 µM | OVCAR-5 > 100 µM | 786-0 > 100 µM | UACC-62 > 100 µM | SNB-75 28.6 µM | TK-10 > 100 µM | HOP-92 44 µM | ACHN > 100 µM | DMS-273 > 100 µM | NCI-H522 > 100 µM | NCI-H460 > 100 µM | EKVX > 100 µM | OVCAR-4 > 100 µM

Brc1cc2c(cc1Br)CN(c1ccccc1)C2
inactive: U-251 > 100 µM | IGROV-1 > 100 µM | HL-60 > 100 µM | UACC-257 > 100 µM | OVCAR-5 > 100 µM | 786-0 > 100 µM | UACC-62 > 100 µM | SNB-75 > 100 µM | TK-10 > 100 µM | HOP-92 41.5 µM | ACHN > 100 µM | DMS-273 > 100 µM | NCI-H460 > 100 µM | EKVX > 100 µM | OVCAR-4 > 100 µM

CC(=O)OCC1OC(n2c(=O)n(-c3ccccc3)c(=O)c3cc(Br)cc(Br)c32)C(OC(C)=O)C(OC(C)=O)C1OC(C)=O (stereo unspecified)
inactive: U-251 71 µM | IGROV-1 > 100 µM | HL-60 > 100 µM | UACC-257 > 100 µM | OVCAR-5 > 100 µM | 786-0 > 100 µM | UACC-62 > 100 µM | SNB-75 74.1 µM | TK-10 > 100 µM | HOP-92 > 100 µM | ACHN > 100 µM | DMS-273 > 100 µM | NCI-H522 > 100 µM | NCI-H460 > 100 µM | EKVX > 100 µM | OVCAR-4 7.5 µM

NC(CNc1ccc(O)cc1)C(=O)O (stereo unspecified)
inactive: U-251 > 100 µM | HL-60 31.5 µM | UACC-257 > 100 µM | OVCAR-5 > 100 µM | SR 87.9 µM | 786-0 16 µM | UACC-62 20.9 µM | SNB-75 > 100 µM | TK-10 > 100 µM | HOP-92 > 100 µM | ACHN 57.8 µM | DMS-273 > 100 µM | NCI-H522 > 100 µM | NCI-H460 > 100 µM | EKVX > 100 µM | OVCAR-4 17.4 µM

CCc1nc2c([nH]1)C(=O)c1ccccc1C2=O
inactive: U-251 55.5 µM | HL-60 25.6 µM | UACC-257 26.5 µM | OVCAR-5 > 100 µM | SR 38.5 µM | 786-0 61.4 µM | UACC-62 29.9 µM | SNB-75 > 100 µM | TK-10 > 100 µM | ACHN 59.8 µM | DMS-273 37.1 µM | NCI-H522 33.5 µM | NCI-H460 43 µM | EKVX 94.4 µM | OVCAR-4 58.7 µM

Cc1cc2c(cc1C)[n+]([O-])c(C(=O)C/C(=N/NC(=O)c1ccccc1O)C(=O)Nc1ccccc1C(C)C)c(C)[n+]2[O-]
inactive: U-251 > 100 µM | IGROV-1 > 100 µM | HL-60 14.8 µM | UACC-257 > 100 µM | OVCAR-5 > 100 µM | 786-0 88.1 µM | UACC-62 68.1 µM | SNB-75 88.5 µM | TK-10 > 100 µM | ACHN > 100 µM | DMS-273 99.5 µM | NCI-H522 42.6 µM | NCI-H460 61.8 µM | EKVX > 100 µM | OVCAR-4 54.1 µM

C[C@H]1CC[P+](C)(c2ccccc2)C1 (stereo partly specified)
inactive: U-251 > 100 µM | IGROV-1 > 100 µM | HL-60 > 100 µM | UACC-257 > 100 µM | OVCAR-5 > 100 µM | SR > 100 µM | 786-0 > 100 µM | UACC-62 > 100 µM | SNB-75 > 100 µM | TK-10 > 100 µM | ACHN > 100 µM | DMS-273 > 100 µM | NCI-H522 > 100 µM | NCI-H460 > 100 µM | EKVX > 100 µM

CC1=C(C)CC2(CCCCC2=O)[S+]([O-])C1 (stereo unspecified)
inactive: U-251 > 100 µM | IGROV-1 > 100 µM | HL-60 > 100 µM | UACC-257 > 100 µM | OVCAR-5 > 100 µM | SR > 100 µM | 786-0 > 100 µM | UACC-62 > 100 µM | SNB-75 > 100 µM | TK-10 > 100 µM | HOP-92 > 100 µM | ACHN > 100 µM | DMS-273 > 100 µM | NCI-H460 > 100 µM | EKVX > 100 µM | OVCAR-4 > 100 µM

Cc1ccc(Nc2cccc3c2C(=O)c2cccc(Nc4ccc(C)cc4S(=O)(=O)O)c2C3=O)c(S(=O)(=O)O)c1
inactive: U-251 > 100 µM | IGROV-1 > 100 µM | HL-60 > 100 µM | UACC-257 > 100 µM | SR > 100 µM | 786-0 > 100 µM | UACC-62 > 100 µM | SNB-75 > 100 µM | TK-10 > 100 µM | ACHN > 100 µM | DMS-273 > 100 µM | NCI-H522 > 100 µM | NCI-H460 > 100 µM | EKVX > 100 µM | OVCAR-4 > 100 µM
